Experimental data: patent US9884063B2, “Amido-substituted azole compounds” (Bayer Pharma Aktiengesellschaft, priority 2014, dated 2018)
Structures can show the parent of a compound that is named as a salt.

What was measured:
[1] = tested on: wildtype Wnt signaling cascade; assay: HEK293 TOP Assay (Super TopFlash luciferase reporter, Wnt-3a stimulated); assay type: cell-based; details: Homo sapiens, HEK293 TOP reporter cell line, Wnt-3a at EC50, 16 hours incubation, compound dilution series 50 μM to 15 nM
How it was run: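 HEK293 cells stably carrying Super TopFlash (TOP) or FOP reporter, stimulated with recombinant human Wnt-3a (2500–5 ng/ml, two-fold steps). Both lines incubated in parallel with compound from 50 μM to 15 nM (3.16-fold) in CAFTY buffer pH 7.4 with 2 mM Ca2+ and 0.01% BSA; selectivity judged TOP vs FOP.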

TNKS2 = target: T1, TNKS2 (Homo sapiens, UniProt Q9H2K2); assay: Modified TNKS2 Assay 3 (BPS kit #80578, biotin-NAD+, 96 well); assay type: biochemical; details: human TNKS2, BPS kit #80578, 96 well
T1 sequence (Q9H2K2 1-1166): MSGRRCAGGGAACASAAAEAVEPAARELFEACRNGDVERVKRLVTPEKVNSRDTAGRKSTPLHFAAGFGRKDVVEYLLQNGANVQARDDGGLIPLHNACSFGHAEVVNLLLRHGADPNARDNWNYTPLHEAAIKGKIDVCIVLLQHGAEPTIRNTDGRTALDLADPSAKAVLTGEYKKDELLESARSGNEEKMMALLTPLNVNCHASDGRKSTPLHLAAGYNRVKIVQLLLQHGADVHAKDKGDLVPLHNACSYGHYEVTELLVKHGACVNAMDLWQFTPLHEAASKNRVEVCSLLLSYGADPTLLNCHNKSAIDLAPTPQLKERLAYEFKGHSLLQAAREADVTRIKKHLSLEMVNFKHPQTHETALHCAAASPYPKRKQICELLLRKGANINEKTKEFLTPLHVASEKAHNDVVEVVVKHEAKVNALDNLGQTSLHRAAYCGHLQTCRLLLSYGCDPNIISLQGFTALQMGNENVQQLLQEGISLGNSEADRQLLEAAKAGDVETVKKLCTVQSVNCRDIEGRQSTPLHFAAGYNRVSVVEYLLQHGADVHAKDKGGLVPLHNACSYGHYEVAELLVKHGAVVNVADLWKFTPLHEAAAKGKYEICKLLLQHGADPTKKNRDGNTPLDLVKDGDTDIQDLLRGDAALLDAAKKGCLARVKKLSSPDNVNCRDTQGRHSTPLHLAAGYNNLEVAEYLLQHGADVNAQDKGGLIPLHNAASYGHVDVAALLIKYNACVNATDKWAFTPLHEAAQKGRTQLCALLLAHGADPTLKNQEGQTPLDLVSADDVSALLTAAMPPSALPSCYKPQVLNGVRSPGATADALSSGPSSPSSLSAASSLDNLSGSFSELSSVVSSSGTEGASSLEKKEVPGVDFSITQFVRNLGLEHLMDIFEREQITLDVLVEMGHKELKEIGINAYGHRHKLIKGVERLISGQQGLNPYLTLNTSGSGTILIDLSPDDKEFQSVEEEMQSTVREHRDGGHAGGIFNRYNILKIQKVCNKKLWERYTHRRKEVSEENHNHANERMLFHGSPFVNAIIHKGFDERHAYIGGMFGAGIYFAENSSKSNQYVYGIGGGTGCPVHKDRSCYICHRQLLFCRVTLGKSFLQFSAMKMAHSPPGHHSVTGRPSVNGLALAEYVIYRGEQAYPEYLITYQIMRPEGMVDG
Description: (§1) The potency of the compounds against human TNKS2 according to the invention was assessed using a commercially available biotin/streptavidin binding assay kits from BPS Bioscience, San Diego, USA (Catalog #80578 for TNKS2). The incorporation of a biotin-labeled NAD+ during the […] catalyzed ribosylation of a suitable protein substrate was detected using with a streptavidin-HRP coupled chemi-luminescent readout. The intensity of the readout signal is proportional to the incorporated NAD^+. Inhibition of TNKS2 leads to a decreased incorporation of NAD^+ and consequently to a lower readout signal intensity in the corresponding TNKS2 assays. The concentration of a test compound that inhibits the enzyme activity by 50% (corresponds to half of the normed readout signal intensity) is reported as IC50. The assay conducted in a 96 well MTP format according to the manufacturer's protocol and using a BMG Pherastar MTP reader [BMG-Labtech, Offenburg, Germany].

TNKS1 = target: T2, TNKS1 (Homo sapiens, UniProt O95271); assay: Modified TNKS1 Assay 3 (BPS kit #80573, biotin-NAD+, 96 well); assay type: biochemical; details: human TNKS1, BPS kit #80573, 96 well
T2 sequence (O95271 1-1327): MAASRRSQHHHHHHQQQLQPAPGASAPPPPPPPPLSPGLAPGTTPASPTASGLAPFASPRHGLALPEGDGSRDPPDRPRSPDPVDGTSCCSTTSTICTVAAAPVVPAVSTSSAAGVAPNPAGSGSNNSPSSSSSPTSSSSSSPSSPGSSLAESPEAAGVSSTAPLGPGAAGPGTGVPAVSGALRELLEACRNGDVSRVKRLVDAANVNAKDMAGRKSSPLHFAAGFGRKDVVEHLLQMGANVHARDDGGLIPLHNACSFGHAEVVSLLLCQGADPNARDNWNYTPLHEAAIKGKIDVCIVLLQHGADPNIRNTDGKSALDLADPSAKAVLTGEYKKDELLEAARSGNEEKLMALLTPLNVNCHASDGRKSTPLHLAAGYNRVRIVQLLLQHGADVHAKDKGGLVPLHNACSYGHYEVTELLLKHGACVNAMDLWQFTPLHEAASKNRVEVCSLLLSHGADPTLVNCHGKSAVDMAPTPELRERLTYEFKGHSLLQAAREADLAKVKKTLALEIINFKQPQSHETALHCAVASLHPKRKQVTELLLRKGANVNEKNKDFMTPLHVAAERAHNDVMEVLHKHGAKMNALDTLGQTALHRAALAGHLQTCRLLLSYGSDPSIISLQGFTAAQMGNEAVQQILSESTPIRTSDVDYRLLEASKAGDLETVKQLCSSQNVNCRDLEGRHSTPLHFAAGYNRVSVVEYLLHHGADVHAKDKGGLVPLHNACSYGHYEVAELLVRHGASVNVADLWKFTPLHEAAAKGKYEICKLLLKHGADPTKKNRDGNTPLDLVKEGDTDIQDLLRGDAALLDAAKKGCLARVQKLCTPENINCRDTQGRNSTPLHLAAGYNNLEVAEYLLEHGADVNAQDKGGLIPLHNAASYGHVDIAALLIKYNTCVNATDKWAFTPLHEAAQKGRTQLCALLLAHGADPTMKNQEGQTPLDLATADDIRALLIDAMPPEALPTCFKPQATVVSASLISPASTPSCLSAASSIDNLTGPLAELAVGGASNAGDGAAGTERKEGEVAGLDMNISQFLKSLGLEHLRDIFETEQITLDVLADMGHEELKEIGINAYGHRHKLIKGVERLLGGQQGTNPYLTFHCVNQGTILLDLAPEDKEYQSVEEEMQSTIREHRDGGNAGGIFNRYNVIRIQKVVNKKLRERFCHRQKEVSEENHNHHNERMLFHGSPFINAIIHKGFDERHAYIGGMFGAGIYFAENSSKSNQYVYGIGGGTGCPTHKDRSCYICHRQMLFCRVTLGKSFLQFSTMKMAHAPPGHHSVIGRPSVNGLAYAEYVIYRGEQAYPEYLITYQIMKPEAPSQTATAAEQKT
Description: as §1, with “against human TNKS1 according to” for “against human TNKS2 according to”, “USA (Catalog #80573 for TNKS1).” for “USA (Catalog #80578 for TNKS2).”, “#80573 for TNKS1). The incorporation” for “#80578 for TNKS2). The incorporation”, “Inhibition of TNKS1 leads to” for “Inhibition of TNKS2 leads to”, “the corresponding TNKS1 assays. The” for “the corresponding TNKS2 assays. The”, “The assay was conducted in” for “The assay conducted in”

[2] = tested on: HEK293 FOP control reporter cell line; assay: HEK293 FOP Assay (FOP control vector luciferase reporter); assay type: cell-based; details: Homo sapiens, HEK293 FOP control reporter cell line, 16 hours incubation, compound dilution series 50 μM to 15 nM
How it was run: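 Stable HEK293 line carrying the FOP vector (randomized, non-functional TCF sites; Geneticin-selected) was run in parallel with the TOP line. Cells were plated 24 h ahead at 10000/well and given recombinant human Wnt-3a at 2500–5 ng/ml. Compounds were tested at 50 μM–15 nM (3.16-fold steps) in CAFTY buffer, pH 7.4, with 2 mM Ca2+ and 0.01% BSA.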

| SMILES | IC50 ([1]; HEK293, 16 h) | IC50 (TNKS2) | IC50 (TNKS1) | IC50 [2] | IC50 [1] | IC50 ([2]; HEK293, 16 h) |
| --- | --- | --- | --- | --- | --- | --- |
| CNC(=O)c1nc[nH]c1C(=O)Nc1ccc(NC(=O)c2ccc(F)cc2Cl)c(F)c1 [Example 72, N^5-{4-[(2-chloro-4-fluorobenzoyl)amino]-3-fluorophenyl}-N^4-methyl-1H-imidazole-4,5-dicarboxamide] | 490 nM | 60 nM | – | – | – | – |
| O=C(Nc1ccc(NC(=O)c2nc[nH]c2C(=O)NCCN2CCC[C@H](F)C2)cc1)c1ccc(F)cc1Cl [Example 276, N^4-{4-[(2-chloro-4-fluorobenzoyl)amino]phenyl}-N^5-{2-[(3S)-3-fluoropiperidin-1-yl]ethyl}-1H-imidazole-4,5-dicarboxamide] | 110 nM | – | 50 nM | 31000 nM | – | – |
| CC1CCCCN1CCCNC(=O)c1nc[nH]c1C(=O)Nc1ccc(NC(=O)c2ccc(F)cc2Cl)cc1 (centres unmarked) [Example 386, N^5-{4-[(2-chloro-4-fluorobenzoyl)amino]phenyl}-N^4-[3-(2-methylpiperidin-1-yl)propyl]-1H-imidazole-4,5-dicarboxamide] | 460 nM | – | 60 nM | 15000 nM | – | – |
| O=C(Nc1ccc(NC(=O)c2nc[nH]c2C(=O)NCCCN2CCCC(O)C2)cc1)c1ccc(F)cc1Cl (centres unmarked) [Example 273, N^4-{4-[(2-chloro-4-fluorobenzoyl)amino]phenyl}-N^5-[3-(3-hydroxypiperidin-1-yl)propyl]-1H-imidazole-4,5-dicarboxamide] | 1550 nM | – | 30 nM | 21000 nM | – | – |
| CC(C)(N)CCNC(=O)c1[nH]cnc1C(=O)Nc1ccc(NC(=O)c2ccccc2Cl)cc1 [Example 283, N^5-(3-amino-3-methylbutyl)-N^4-{4-[(2-chlorobenzoyl)amino]phenyl}-1H-imidazole-4,5-dicarboxamide hydrochloride salt] | – | – | 110 nM | – | 840 nM | 50000 nM |
| CC(C)(C)NC(=O)c1[nH]cnc1C(=O)Nc1ccc(NC(=O)c2ccc(F)cc2Cl)cc1 [Example 133, N^5-tert-butyl-N^4-{4-[(2-chloro-4-fluorobenzoyl)amino]phenyl}-1H-imidazole-4,5-dicarboxamide] | 430 nM | – | 200 nM | 8700 nM | – | – |

The next lines start with results.

| IC50 ([1]; HEK293, 16 h) | IC50 (TNKS2) | IC50 (TNKS1) | SMILES | IC50 [2] | IC50 [1] | IC50 ([2]; HEK293, 16 h) |
| --- | --- | --- | --- | --- | --- | --- |
| 440 nM | – | 30 nM | CCN(CC)CCCNC(=O)c1nc[nH]c1C(=O)Nc1ccc(NC(=O)c2ccc(F)cc2Cl)cc1 [Example 388, N^5-{4-[(2-chloro-4-fluorobenzoyl)amino]phenyl}-N^4-[3-(diethylamino)propyl]-1H-imidazole-4,5-dicarboxamide] | 17000 nM | – | – |
| 190 nM | – | 80 nM | CCN1CCC(CNC(=O)c2nc[nH]c2C(=O)Nc2ccc(NC(=O)c3ccc(F)cc3Cl)cc2)CC1 [Example 409, N^5-{4-[(2-chloro-4-fluorobenzoyl)amino]phenyl}-N^4-[(1-ethylpiperidin-4-yl)methyl]-1H-imidazole-4,5-dicarboxamide] | 32000 nM | – | – |
| 340 nM | – | 180 nM | CN(C)CC(C)(C)CNC(=O)c1nc[nH]c1C(=O)Nc1ccc(NC(=O)c2ccc(F)cc2Cl)cc1 [Example 396, N^5-{4-[(2-chloro-4-fluorobenzoyl)amino]phenyl}-N^4-[3-(dimethylamino)-2,2-dimethylpropyl]-1H-imidazole-4,5-dicarboxamide] | 25000 nM | – | – |
| 110 nM | – | 90 nM | CN1CCCCC1CNC(=O)c1nc[nH]c1C(=O)Nc1ccc(NC(=O)c2ccc(F)cc2Cl)cc1 (centres unmarked) [Example 410, N^5-{4-[(2-chloro-4-fluorobenzoyl)amino]phenyl}-N^4-[(1-methylpiperidin-2-yl)methyl]-1H-imidazole-4,5-dicarboxamide] | 18000 nM | – | – |
| 350 nM | – | 70 nM | O=C(Nc1ccc(NC(=O)c2[nH]cnc2C(=O)NCCCCCN2CCCC2)cc1)c1ccc(F)cc1Cl [Example 406, N^5-{4-[(2-chloro-4-fluorobenzoyl)amino]phenyl}-N^4-[5-(pyrrolidin-1-yl)pentyl]-1H-imidazole-4,5-dicarboxamide] | 26000 nM | – | – |
